Experimental data from PubChem BioAssay AID2060325 (Molecular Pharmacology Branch, DTP, NCI, 2025).

Test system: SK-OV-3 multi-cell spheroids, viability
Assay: Anticancer human tumor SK-OV-3 cell line growth inhibition [IpAb];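 for viability, T/C: viability read after seven days of drug exposure; percent of DMSO vehicle control luminescence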
Settings: for IC50: curve of first compound; for viability, T/C: stronger effect = lower value
Outline: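 Spheroids of 60% malignant cells, 25% HUVEC and 15% MSC were exposed to targeted agents combined with ipatasertib or abemaciclib. Doses started at or near clinical Cmax (10 microM when unknown) and fell in half-log steps.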

[1] = second compound 0.1 µM, first compound 0.0316 µM
[2] = second compound 0.1 µM, first compound 0.1 µM
[3] = second compound 0.1 µM, first compound 0.316 µM
[4] = second compound 0.1 µM, first compound 1 µM
[5] = second compound 0.1 µM, first compound 3.16 µM
[6] = second compound 0.1 µM, first compound 10 µM
[7] = second compound 0.316 µM, first compound 0.0316 µM
[8] = second compound 0.316 µM, first compound 0.1 µM
[9] = second compound 0.316 µM, first compound 0.316 µM
[10] = second compound 0.316 µM, first compound 1 µM
[11] = second compound 0.316 µM, first compound 3.16 µM
[12] = second compound 0.316 µM, first compound 10 µM
[13] = second compound 1 µM, first compound 0.0316 µM
[14] = second compound 1 µM, first compound 0.1 µM
[15] = second compound 1 µM, first compound 0.316 µM
[16] = second compound 1 µM, first compound 1 µM
[17] = second compound 1 µM, first compound 3.16 µM
[18] = second compound 1 µM, first compound 10 µM
[19] = second compound 3.16 µM, first compound 0.0316 µM
[20] = second compound 3.16 µM, first compound 0.1 µM
[21] = second compound 3.16 µM, first compound 0.316 µM
[22] = second compound 3.16 µM, first compound 1 µM
[23] = second compound 3.16 µM, first compound 3.16 µM
[24] = second compound 3.16 µM, first compound 10 µM
[25] = second compound 10 µM, first compound 0.0316 µM
[26] = second compound 10 µM, first compound 0.1 µM
[27] = second compound 10 µM, first compound 0.316 µM
[28] = second compound 10 µM, first compound 1 µM
[29] = second compound 10 µM, first compound 3.16 µM
[30] = second compound 10 µM, first compound 10 µM

## C=CC(=O)N1CCN(c2nc(=O)n(-c3c(C)ccnc3C(C)C)c3nc(-c4c(O)cccc4F)c(F)cc23)C(C)C1 (stereo not given) + CC(C)NCC(C(=O)N1CCN(c2ncnc3c2C(C)CC3O)CC1)c1ccc(Cl)cc1
Second compound 0.1 µM
  IC50: 7190 nM
Second compound 0.316 µM
  IC50: < 31.6 nM
Second compound 1 µM
  IC50: < 31.6 nM
Second compound 3.16 µM
  IC50: < 31.6 nM
Second compound 10 µM
  IC50: < 31.6 nM
[1]
  viability, T/C: 75.9%
[2]
  viability, T/C: 80.2%
[3]
  viability, T/C: 77.7%
[4]
  viability, T/C: 76.3%
[5]
  viability, T/C: 72.7%
[6]
  viability, T/C: 41%
[7]
  viability, T/C: 35.8%
[8]
  viability, T/C: 39.4%
[9]
  viability, T/C: 39.6%
[10]
  viability, T/C: 38.7%
[11]
  viability, T/C: 39.5%
[12]
  viability, T/C: 26.2%
[13]
  viability, T/C: 21.1%
[14]
  viability, T/C: 19.1%
[15]
  viability, T/C: 21.4%
[16]
  viability, T/C: 23.8%
[17]
  viability, T/C: 24.6%
[18]
  viability, T/C: 16.9%
[19]
  viability, T/C: 14.8%
[20]
  viability, T/C: 17.1%
[21]
  viability, T/C: 16.4%
[22]
  viability, T/C: 18.2%
[23]
  viability, T/C: 17%
[24]
  viability, T/C: 11.2%
[25]
  viability, T/C: 9.96%
[26]
  viability, T/C: 10.9%
[27]
  viability, T/C: 10.4%
[28]
  viability, T/C: 10.8%
[29]
  viability, T/C: 10.9%
[30]
  viability, T/C: 6.35%

## CC(C)(C)c1cnc(CSc2cnc(NC(=O)C3CCNCC3)s2)o1 + CC(C)NCC(C(=O)N1CCN(c2ncnc3c2C(C)CC3O)CC1)c1ccc(Cl)cc1
Second compound 0.1 µM
  IC50: 168 nM
Second compound 0.316 µM
  IC50: 118 nM
Second compound 1 µM
  IC50: < 9.49 nM
Second compound 3.16 µM
  IC50: < 9.49 nM
Second compound 10 µM
  IC50: < 9.49 nM
Second compound 0.1 µM, first compound 0.00949 µM
  viability, T/C: 74.8%
Second compound 0.1 µM, first compound 0.03 µM
  viability, T/C: 92%
Second compound 0.1 µM, first compound 0.0949 µM
  viability, T/C: 89.1%
Second compound 0.1 µM, first compound 0.3 µM
  viability, T/C: 14.5%
Second compound 0.1 µM, first compound 0.949 µM
  viability, T/C: 0.65%
Second compound 0.1 µM, first compound 3 µM
  viability, T/C: 0.75%
Second compound 0.316 µM, first compound 0.00949 µM
  viability, T/C: 49.5%
Second compound 0.316 µM, first compound 0.03 µM
  viability, T/C: 50.8%
Second compound 0.316 µM, first compound 0.0949 µM
  viability, T/C: 73.7%
Second compound 0.316 µM, first compound 0.3 µM
  viability, T/C: 17.3%
Second compound 0.316 µM, first compound 0.949 µM
  viability, T/C: 0.41%
Second compound 0.316 µM, first compound 3 µM
  viability, T/C: 0.65%
Second compound 1 µM, first compound 0.00949 µM
  viability, T/C: 22.3%
Second compound 1 µM, first compound 0.03 µM
  viability, T/C: 30.2%
Second compound 1 µM, first compound 0.0949 µM
  viability, T/C: 41.9%
Second compound 1 µM, first compound 0.3 µM
  viability, T/C: 11.7%
Second compound 1 µM, first compound 0.949 µM
  viability, T/C: 0.3%
Second compound 1 µM, first compound 3 µM
  viability, T/C: 0.62%
Second compound 3.16 µM, first compound 0.00949 µM
  viability, T/C: 18%
Second compound 3.16 µM, first compound 0.03 µM
  viability, T/C: 22.6%
Second compound 3.16 µM, first compound 0.0949 µM
  viability, T/C: 28.4%
Second compound 3.16 µM, first compound 0.3 µM
  viability, T/C: 9.86%
Second compound 3.16 µM, first compound 0.949 µM
  viability, T/C: 0.58%
Second compound 3.16 µM, first compound 3 µM
  viability, T/C: 0.66%
Second compound 10 µM, first compound 0.00949 µM
  viability, T/C: 11.3%
Second compound 10 µM, first compound 0.03 µM
  viability, T/C: 11.4%
Second compound 10 µM, first compound 0.0949 µM
  viability, T/C: 14.2%
Second compound 10 µM, first compound 0.3 µM
  viability, T/C: 2.96%
Second compound 10 µM, first compound 0.949 µM
  viability, T/C: 0.36%
Second compound 10 µM, first compound 3 µM
  viability, T/C: 0.65%

## Cn1ncc(Cl)c1-c1cc(C(=O)NC(CN)Cc2cccc(F)c2)sc1Cl (stereo not given) + CC(C)NCC(C(=O)N1CCN(c2ncnc3c2C(C)CC3O)CC1)c1ccc(Cl)cc1
Second compound 0.1 µM
  IC50: 58.8 nM
Second compound 0.316 µM
  IC50: < 31.6 nM
Second compound 1 µM
  IC50: < 31.6 nM
Second compound 3.16 µM
  IC50: < 31.6 nM
Second compound 10 µM
  IC50: < 31.6 nM
[1]
  viability, T/C: 62.6%
[2]
  viability, T/C: 38.1%
[3]
  viability, T/C: 25%
[4]
  viability, T/C: 16.4%
[5]
  viability, T/C: 8.41%
[6]
  viability, T/C: 0.21%
[7]
  viability, T/C: 36.4%
[8]
  viability, T/C: 28.2%
[9]
  viability, T/C: 19.7%
[10]
  viability, T/C: 13.8%
[11]
  viability, T/C: 8.71%
[12]
  viability, T/C: 0.38%
[13]
  viability, T/C: 20.7%
[14]
  viability, T/C: 18.3%
[15]
  viability, T/C: 17.6%
[16]
  viability, T/C: 13.6%
[17]
  viability, T/C: 8.68%
[18]
  viability, T/C: 0.2%
[19]
  viability, T/C: 15.7%
[20]
  viability, T/C: 15.9%
[21]
  viability, T/C: 15.9%
[22]
  viability, T/C: 12.9%
[23]
  viability, T/C: 6.61%
[24]
  viability, T/C: 0.36%
[25]
  viability, T/C: 10.6%
[26]
  viability, T/C: 11.4%
[27]
  viability, T/C: 9.32%
[28]
  viability, T/C: 6.87%
[29]
  viability, T/C: 4.93%
[30]
  viability, T/C: 0.28%

## Cn1nccc1Nc1nccc(-c2ccn(C(CO)c3ccc(Cl)c(F)c3)c(=O)c2)n1 (stereo not given) + CC(C)NCC(C(=O)N1CCN(c2ncnc3c2C(C)CC3O)CC1)c1ccc(Cl)cc1
Second compound 0.1 µM
  IC50: 5040 nM
Second compound 0.316 µM
  IC50: < 31.6 nM
Second compound 1 µM
  IC50: < 31.6 nM
Second compound 3.16 µM
  IC50: < 31.6 nM
Second compound 10 µM
  IC50: < 31.6 nM
[1]
  viability, T/C: 71.3%
[2]
  viability, T/C: 68%
[3]
  viability, T/C: 67.6%
[4]
  viability, T/C: 68.3%
[5]
  viability, T/C: 62.3%
[6]
  viability, T/C: 31.9%
[7]
  viability, T/C: 36.5%
[8]
  viability, T/C: 36%
[9]
  viability, T/C: 37.7%
[10]
  viability, T/C: 36.9%
[11]
  viability, T/C: 29.7%
[12]
  viability, T/C: 16.6%
[13]
  viability, T/C: 18.4%
[14]
  viability, T/C: 18.7%
[15]
  viability, T/C: 17.6%
[16]
  viability, T/C: 16.8%
[17]
  viability, T/C: 15.2%
[18]
  viability, T/C: 7.24%
[19]
  viability, T/C: 15.6%
[20]
  viability, T/C: 12.6%
[21]
  viability, T/C: 10.6%
[22]
  viability, T/C: 9.52%
[23]
  viability, T/C: 8.01%
[24]
  viability, T/C: 4.41%
[25]
  viability, T/C: 9.59%
[26]
  viability, T/C: 8.62%
[27]
  viability, T/C: 7.34%
[28]
  viability, T/C: 7.5%
[29]
  viability, T/C: 6.98%
[30]
  viability, T/C: 2.15%

## Cn1ncnc1[C@H]1c2n[nH]c(=O)c3cc(F)cc(c23)N[C@@H]1c1ccc(F)cc1 + CC(C)NCC(C(=O)N1CCN(c2ncnc3c2C(C)CC3O)CC1)c1ccc(Cl)cc1
Second compound 0.1 µM
  IC50: > 100 nM
Second compound 0.316 µM
  IC50: < 0.316 nM
Second compound 1 µM
  IC50: < 0.316 nM
Second compound 3.16 µM
  IC50: < 0.316 nM
Second compound 10 µM
  IC50: < 0.316 nM
Second compound 0.1 µM, first compound 0.000316 µM
  viability, T/C: 74.2%
Second compound 0.1 µM, first compound 0.001 µM
  viability, T/C: 78.8%
Second compound 0.1 µM, first compound 0.00316 µM
  viability, T/C: 60.9%
Second compound 0.1 µM, first compound 0.01 µM
  viability, T/C: 69.4%
[1]
  viability, T/C: 65.4%
[2]
  viability, T/C: 58.8%
Second compound 0.316 µM, first compound 0.000316 µM
  viability, T/C: 34.5%
Second compound 0.316 µM, first compound 0.001 µM
  viability, T/C: 39.5%
Second compound 0.316 µM, first compound 0.00316 µM
  viability, T/C: 41.2%
Second compound 0.316 µM, first compound 0.01 µM
  viability, T/C: 38.4%
[7]
  viability, T/C: 38.3%
[8]
  viability, T/C: 33.2%
Second compound 1 µM, first compound 0.000316 µM
  viability, T/C: 22.9%
Second compound 1 µM, first compound 0.001 µM
  viability, T/C: 21.5%
Second compound 1 µM, first compound 0.00316 µM
  viability, T/C: 20.5%
Second compound 1 µM, first compound 0.01 µM
  viability, T/C: 20.4%
[13]
  viability, T/C: 20.9%
[14]
  viability, T/C: 19%
Second compound 3.16 µM, first compound 0.000316 µM
  viability, T/C: 19%
Second compound 3.16 µM, first compound 0.001 µM
  viability, T/C: 17.1%
Second compound 3.16 µM, first compound 0.00316 µM
  viability, T/C: 15.1%
Second compound 3.16 µM, first compound 0.01 µM
  viability, T/C: 15.4%
[19]
  viability, T/C: 12.8%
[20]
  viability, T/C: 16.1%
Second compound 10 µM, first compound 0.000316 µM
  viability, T/C: 10.3%
Second compound 10 µM, first compound 0.001 µM
  viability, T/C: 10.1%
Second compound 10 µM, first compound 0.00316 µM
  viability, T/C: 10.3%
Second compound 10 µM, first compound 0.01 µM
  viability, T/C: 9.69%
[25]
  viability, T/C: 8.59%
[26]
  viability, T/C: 9.45%
